pIC50: −log10 of the molar value.

PD-1/PD-L1 protein/protein interaction, sequence (Q9NZQ7 19-238): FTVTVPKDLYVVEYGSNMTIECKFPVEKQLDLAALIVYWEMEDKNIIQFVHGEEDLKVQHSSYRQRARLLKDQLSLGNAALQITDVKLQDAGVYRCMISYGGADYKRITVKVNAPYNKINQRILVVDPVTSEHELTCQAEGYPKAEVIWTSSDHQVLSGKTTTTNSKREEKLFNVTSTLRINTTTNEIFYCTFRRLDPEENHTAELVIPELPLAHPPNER

This assay concerns the target PD-1/PD-L1 protein/protein interaction (Homo sapiens (Human), UniProt Q9NZQ7). As to the kind of experiment: PD-1/PD-L1 Homogeneous Time-Resolved Fluorescence (HTRF) Binding Assay. Conditions: recombinant human PD-L1 (19-238) His-tag and human PD-1 (25-167) Fc tag; PBS pH 7.4. On the procedure:
Example A. PD-1/PD-L1 Homogeneous Time-Resolved Fluorescence (HTRF) Binding Assay
The assays were conducted in a standard black 384-well polystyrene plate with a final volume of 20 μL. Inhibitors were first serially diluted in DMSO and then added to the plate wells before the addition of other reaction components. The final concentration of DMSO in the assay was 1%. The assays were carried out at […] in the PBS buffer (pH 7.4) with 0.05% Tween-20 and 0.1% BSA. Recombinant human PD-L1 protein (19-238) with a His-tag at the C-terminus was purchased from AcroBiosystems (PD1-H5229). Recombinant human PD-1 protein (25-167) with Fc tag at the C-terminus was also purchased from AcroBiosystems (PD1-H5257). PD-L1 and PD-1 proteins were diluted in the assay buffer and 10 μL was added to the plate well. Plates were centrifuged and proteins were preincubated with inhibitors for 40 minutes. The incubation was followed by the addition of 10 μL of HTRF detection buffer supplemented with Europium cryptate-labeled anti-human IgG (PerkinElmer-AD0212) specific for Fc and anti-His antibody conjugated to SureLight®-Allophycocyanin (APC, PerkinElmer-AD0059H). After centrifugation, the plate was incubated at 25° C. for 60 min. before reading on a PHERAstar FS plate reader (665 nm/620 nm ratio). Final concentrations in the assay were […] PD1, 10 nM PD-L1, 1 nM europium anti-human IgG and 20 nM anti-His-Allophycocyanin. IC50 determination was performed by fitting the curve of percent control activity versus the log of the inhibitor concentration using the GraphPad Prism 5.0 software.
For `Cc1c(Nc2cccc3cc(CNCCO)cnc23)cccc1-c1ccccc1` [Example 1, 2-[({8-[(2-methylbiphenyl-3-yl)amino]quinolin-3-yl}methyl)amino]ethanol], the pIC50 was 7.00 to 8.00. The result for `Cc1c(Nc2nccc3cc(CNCCO)cnc23)cccc1-c1ccccc1` [Example 2, 2-[({8-[(2-methylbiphenyl-3-yl)amino]-1,7-naphthyridin-3-yl}methyl)amino]ethanol] reads at least 8.00. The result for `Cc1c(Nc2nccc3cc(CN4CCCCC4C(=O)O)cnc23)cccc1-c1ccccc1` (stereo not drawn) [Example 3, 1-({8-[(2-methylbiphenyl-3-yl)amino]-1,7-naphthyridin-3-yl}methyl)piperidine-2-carboxylic Acid] reads 7.00 to 8.00; that for `Cc1c(Nc2ncnc3cc(CN4CCCCC4C(=O)O)cnc23)cccc1-c1ccccc1` (stereo not drawn) [Example 4, 1-({4-[(2-methylbiphenyl-3-yl)amino]pyrido[3,2-d]pyrimidin-7-yl}methyl)piperidine-2-carboxylic Acid], 7.00 to 8.00. Regarding `Cc1c(Nc2nccc3c(CN4CCCCC4C(=O)O)ccnc23)cccc1-c1ccccc1` (stereo not drawn) [Example 5, 1-({8-[(2-methylbiphenyl-3-yl)amino]-1,7-naphthyridin-4-yl}methyl)piperidine-2-carboxylic Acid], the pIC50 is at least 8.00. The result for `Cc1c(Nc2nccc3c(CNCCO)ccnc23)cccc1-c1ccccc1` [Example 6, 2-[({8-[(2-methylbiphenyl-3-yl)amino]-1,7-naphthyridin-4-yl}methyl)amino]ethanol] reads 7.00 to 8.00; that for `Cc1c(Nc2cccc3c(CNCCO)ccnc23)cccc1-c1ccccc1` [Example 7, 2-[({8-[(2-methylbiphenyl-3-yl)amino]quinolin-4-yl}methyl)amino]ethanol], 7.00 to 8.00; that for `Cc1c(Nc2cccc3c(CN4CCCCC4C(=O)O)ccnc23)cccc1-c1ccccc1` (stereo not drawn) [Example 8, 1-({8-[(2-methylbiphenyl-3-yl)amino]quinolin-4-yl}methyl)piperidine-2-carboxylic Acid], 7.00 to 8.00. The result for `Cc1c(Nc2nccc3c(Cl)c(CNCCO)cnc23)cccc1-c1ccccc1` [Example 9, 2-[({4-chloro-8-[(2-methylbiphenyl-3-yl)amino]-1,7-naphthyridin-3-yl}methyl)amino]ethanol] reads 7.00 to 8.00; that for `COc1c(CNCCO)cnc2c(Nc3cccc(-c4ccccc4)c3C)nccc12` [Example 10, 2-[({4-methoxy-8-[(2-methylbiphenyl-3-yl)amino]-1,7-naphthyridin-3-yl}methyl)amino]ethanol], at least 8.00. Regarding `Cc1c(Nc2nccc3c(Cl)c(CN4CCCCC4C(=O)O)cnc23)cccc1-c1ccccc1` (stereo not drawn) [Example 11, 1-({4-chloro-8-[(2-methylbiphenyl-3-yl)amino]-1,7-naphthyridin-3-yl}methyl)piperidine-2-carboxylic Acid], the pIC50 is 7.00 to 8.00. On to `Cc1c(Nc2nccc3c(CNCCO)ccnc23)cccc1-c1ccc2c(c1)OCCO2` [Example 12, 2-{[(8-{[3-(2,3-dihydro-1,4-benzodioxin-6-yl)-2-methylphenyl]amino}-1,7-naphthyridin-4-yl)methyl]amino}ethanol], for which the pIC50 is at least 8.00. Consider `Cc1c(Nc2nccc3c(CN4CCCCC4C(=O)O)ccnc23)cccc1-c1ccc2c(c1)OCCO2` (stereo not drawn) [Example 13, 1-[(8-{[3-(2,3-dihydro-1,4-benzodioxin-6-yl)-2-methylphenyl]amino}-1,7-naphthyridin-4-yl)methyl]piperidine-2-carboxylic Acid], for which the pIC50 was 7.00 to 8.00. For `Cc1c(Nc2nccc3nc(CNCCO)cnc23)cccc1-c1ccccc1` [Example 14, 2-[({5-[(2-methylbiphenyl-3-yl)amino]pyrido[3,4-b]pyrazin-2-yl}methyl)amino]ethanol], the pIC50 was at least 8.00. The result for `Cc1c(Nc2nccc3nc(CN4CCCC[C@H]4C(=O)O)cnc23)cccc1-c1ccccc1` [Example 15, (2S)-1-({5-[(2-methylbiphenyl-3-yl)amino]pyrido[3,4-b]pyrazin-2-yl}methyl)piperidine-2-carboxylic Acid] reads 7.00 to 8.00; that for `N#Cc1c(Nc2nccc3cc(CNCCO)cnc23)cccc1-c1ccc2c(c1)OCCO2` [Example 16, 2-(2,3-dihydro-1,4-benzodioxin-6-yl)-6-[(3-{[(2-hydroxyethyl)amino]methyl}-1,7-naphthyridin-8-yl)amino]benzonitrile], at least 8.00; that for `Cc1c(Nc2nccc3cc(CNCCO)cnc23)cccc1-c1ccc2c(c1)OCCO2` [Example 17, 2-{[(8-{[3-(2,3-dihydro-1,4-benzodioxin-6-yl)-2-methylphenyl]amino}-1,7-naphthyridin-3-yl)methyl]amino}ethanol], at least 8.00. The result for `Cc1c(Nc2nccc3cc(CNCCO)cnc23)cccc1C1=CCCCC1` [Example 18, 2-[({8-[(3-cyclohex-1-en-1-yl-2-methylphenyl)amino]-1,7-naphthyridin-3-yl}methyl)amino]ethanol] reads at least 8.00. The result for `N#Cc1c(Nc2nccc3cc(CNCCO)cnc23)cccc1-c1ccccc1` [Example 19, 3-[(3-{[(2-hydroxyethyl)amino]methyl}-1,7-naphthyridin-8-yl)amino]biphenyl-2-carbonitrile] reads at least 8.00; that for `N#Cc1c(Nc2nccc3cc(CNCCO)cnc23)cccc1C1=CCCCC1` [Example 20, 2-cyclohex-1-en-1-yl-6-[(3-{[(2-hydroxyethyl)amino]methyl}-1,7-naphthyridin-8-yl)amino]benzonitrile], at least 8.00. On to `N#Cc1c(Nc2nccc3cc(CNCCO)cnc23)cccc1C1CCCCC1` [Example 21, 2-cyclohexyl-6-[(3-{[(2-hydroxyethyl)amino]methyl}-1,7-naphthyridin-8-yl)amino]benzonitrile], for which the negative-log IC50 (pIC50) is 7.00 to 8.00.

These data come from US11535615B2, “Heterocyclic compounds as immunomodulators” (Incyte Corporation, priority 2015, dated 2022).
